From patent publication US10583206B2, “Radioactive probe for detecting hydrogen sulfide” (KYUNGPOOK NATIONAL UNIVERSITY INDUSTRY-ACADEMIC COOPERATION …, priority 2015, dated 2020)

How the values were obtained:
[1] = tested on: colon carcinoma cell CT-26; experiment: Cellular uptake test under various NaHS concentrations (gamma counter); format: cell-based; settings: CT-26 cells
Protocol: Cellular drug uptake is an important prognostic factor in the diagnosis of diseases. Therefore, to examine cellular uptake of the ^64Cu-labeled complex compounds according to the present disclosure, experiments for measuring changes in the cellular uptake under various concentrations of hydrogen sulfide were performed.
A colon carcinoma cell CT-26 was seeded in each plate at a density of 5×10^6, and then 10 μCi-300 μCi of ^64Cu-labeled complex compound of Examples 1, 7 or 9 according to the present disclosure was treated thereto, followed by incubation for 10 minutes. The cells were washed with PBS, and then 0 μM, 1 μM, or 50 μM of NaHS solution was added thereto, followed by incubation for 5 minutes. Thereafter, the cells were washed with PBS, and then cells were removed from the plate by adding trypsin and EDTA, followed by centrifugation. Supernatants were discarded and radiation of remaining cells was measured by using a gamma counter.

Paw inflammation model = format: in vivo, Balb/c or ICR mice
Protocol: (1) Paw Pain Inflammation Model
A small amount of CFA (complete Freund's adjuvant) or formalin was injected into only one paw (right) of the hind paws of Balb/c or ICR mice to establish inflammation models. 1 day after injection of the inflammation inducer, the mice were used in imaging or other in vivo experiments.
It is a known fact that inflamed sites show high concentrations of hydrogen sulfide.
Nuclear medicine imaging was measured by using an Inveon PET/CT system of Siemens Healthcare, and optical imaging was measured by using IVIS spectrum CT equipment. Cherenkov radiation emitted from ^64Cu was measured by using a highly sensitive CCD (charge-coupled device) camera.
Imaging was measured for 1 minute to 5 minutes, and a radiation dose was about 50 μCi to 2000 μCi, and photographs were variously taken as needed, such as immediately after first injection, at 1 hour, 4 hours, and 24 hours later.

[2] = Test of hydrogen sulfide detection sensitivity (% decomplexation with NaHS, radio-TLC); format: physicochemical; settings: 37° C. for 15 minutes
Protocol: To measure hydrogen sulfide detection sensitivity of the ^64Cu-labeled complex compound according to the present disclosure, the following experiment was performed.
About 45 μCi-55 μCi of ^64Cu-labeled complex compound (250 μL of triple distilled water) was mixed with various concentrations of NaHS solution (250 µL of triple distilled water), and stirred at 37° C. for 15 minutes (a total volume used in the reaction was equally 500 μL). After completion of the reaction, the resulting products were strongly stirred to mix appropriately.
Formation of copper sulfide (^64CuS) was confirmed by quantification of % decomplexation by using a radio-TLC scanner, and results are shown in the following Tables 2 and 3.

[3] = Test of hydrogen sulfide detection over time (^64CuS formation, radio-TLC); format: physicochemical; set-up: unit not given here; settings: 100 μM NaHS, 37° C.
Protocol: To examine reactivity of the ^64Cu-labeled complex compound according to the present disclosure over time, the following experiment was performed.
A detailed experimental method is as follows.
About 45 μCi-50 μCi of ^64Cu-labeled complex compound (250 μL of triple distilled water) was mixed with 100 μM of NaHS solution ([…] of triple distilled water), and stirred at 37° C. for 15 minutes. Formation of copper sulfide (^64CuS) was quantified by using a radio-TLC scanner.

[4] = Test of hydrogen sulfide selectivity (overall statements); format: physicochemical
Protocol: (§1) In addition to hydrogen sulfide, many different anions, radicals, etc. exist in the body. Therefore, to examine selective reactivity of the ^64Cu-labeled complex compound according to the present disclosure for sulfide ions, the following experiment was performed.
(§2) About 45 μCi-55 μCi of the ^64Cu-labeled complex compound (250 μL of triple distilled water) was mixed with 100 μM of various anion solutions (250 μL of triple distilled water) including biothiol, and stirred at 37° C. for 15 minutes.
(§3) Formation of copper sulfide (^64CuS) was quantified by using a radio-TLC scanner.
(§4) Various biothiol or salt solutions were prepared by dissolving the compounds in triple distilled water.
(§5) In Table, concentrations of all biothiols and other competitive materials are 100 μM. Further, specific concentrations of biothiols, anions, and oxidants used in Table are as follows: [L-Cys (1 mM); L-Hcys (10 mM); GSH (10 mM); DL-dithiothretitol (DTT, 100 μM); L-ascorbic acid (L-AsA, 10 mM); 2-mercaptoethanol (2-ME, 10 mM); NaCl (10 mm); KI (1 mM); Na2S2O3 (1 mM); Na2S2O5 (1 mM); NaOAc (1 mM); H2O2 ([…]); NaClO4 (100 μM); NaHCO3 (100 μM); NaNO2 ([…]); NaN3 (100 μM); ATB 337 (100 μM); diallyl trisulphide (100 μM)].

[5] = Hydrogen sulfide selectivity test: decomplexation by Cys; format: physicochemical; settings: 100 μM or L-Cys (1 mM), 37° C. for 15 minutes
Protocol: as §1, §2, §3, §4, §5

[6] = Hydrogen sulfide selectivity test: decomplexation by Hcys; format: physicochemical; settings: 100 μM or L-Hcys (10 mM), 37° C. for 15 minutes
Protocol: as §1, §2, §3, §4, §5

[7] = Hydrogen sulfide selectivity test: decomplexation by GSH; format: physicochemical; settings: 100 μM or GSH (10 mM), 37° C. for 15 minutes
Protocol: as §1, §2, §3, §4, §5

[8] = Hydrogen sulfide selectivity test: decomplexation by DTT; format: physicochemical; settings: DL-dithiothretitol (DTT, 100 μM); 37° C. for 15 minutes
Protocol: as §1, §2, §3, §4, §5

[9] = Hydrogen sulfide selectivity test: decomplexation by L-AsA; format: physicochemical; settings: L-ascorbic acid; 100 μM or (L-AsA, 10 mM); 37° C. for 15 minutes
Protocol: as §1, §2, §3, §4, §5

[10] = Hydrogen sulfide selectivity test: decomplexation by ME; format: physicochemical; settings: 2-mercaptoethanol; 100 μM or (2-ME, 10 mM); 37° C. for 15 minutes
Protocol: as §1, §2, §3, §4, §5

[11] = Hydrogen sulfide selectivity test: decomplexation by NaCl; format: physicochemical; settings: 100 μM or NaCl (10 mm), 37° C. for 15 minutes
Protocol: as §1, §2, §3, §4, §5

[12] = Hydrogen sulfide selectivity test: decomplexation by Kl; format: physicochemical; settings: 100 μM or KI (1 mM), 37° C. for 15 minutes
Protocol: as §1, §2, §3, §4, §5

[13] = Hydrogen sulfide selectivity test: decomplexation by Na2S2O3; format: physicochemical; settings: 100 μM or (1 mM), 37° C. for 15 minutes
Protocol: as §1, §2, §3, §4, §5

[14] = Hydrogen sulfide selectivity test: decomplexation by Na2S2O5; format: physicochemical; settings: 100 μM or (1 mM), 37° C. for 15 minutes
Protocol: as §1, §2, §3, §4, §5

[15] = Hydrogen sulfide selectivity test: decomplexation by NaOAc; format: physicochemical; settings: 100 μM or (1 mM), 37° C. for 15 minutes
Protocol: as §1, §2, §3, §4, §5

[16] = Hydrogen sulfide selectivity test: decomplexation by H2O2; format: physicochemical; settings: H2O2 (100 µM); 37° C. for 15 minutes
Protocol: as §1, §2, §3, §4, §5

[17] = Hydrogen sulfide selectivity test: decomplexation by NaClO4; format: physicochemical; settings: NaClO4 (100 μM); 37° C. for 15 minutes
Protocol: as §1, §2, §3, §4, §5

[18] = Hydrogen sulfide selectivity test: decomplexation by NaHCO3; format: physicochemical; settings: NaHCO3 (100 μM); 37° C. for 15 minutes
Protocol: as §1, §2, §3, §4, §5

[19] = Hydrogen sulfide selectivity test: decomplexation by NaNO2; format: physicochemical; settings: NaNO2 (100 µM); 37° C. for 15 minutes
Protocol: as §1, §2, §3, §4, §5

[20] = Hydrogen sulfide selectivity test: decomplexation by NaN3; format: physicochemical; settings: NaN3 (100 μM); 37° C. for 15 minutes
Protocol: as §1, §2, §3, §4, §5

[21] = Hydrogen sulfide selectivity test: decomplexation by ATB 337; format: physicochemical; settings: ATB 337 (100 μM); 37° C. for 15 minutes
Protocol: as §1, §2, §3, §4, §5

[22] = Hydrogen sulfide selectivity test: decomplexation by DAT (diallyl trisulphide); format: physicochemical; settings: DAT = diallyl trisulphide (100 μM); 37° C. for 15 minutes
Protocol: as §1, §2, §3, §4, §5

[23] = Retention/excretion after injection into sites on the backs of rats (optical imaging); format: in vivo; settings: about 0.48 mCi injected into sites on the backs of rats
Protocol: Next, at the beginning of the second experiment, about 0.48 mCi of ^64Cu(II) ion, ^64CuS, ^64Cu-labeled complex compound according to Example 1, and ^64Cu-labeled complex compound according to Example 16 were injected into four sites on the backs of the same rats, respectively. Immediately, optical images were taken and shown in a lower left image of FIG. 4. A photograph taken after 4 hours was shown in a lower right image of FIG. 4.

CC1=NC(C)CNC(C)(C)CC(C)=NC(C)CNC(C)(C)C1.[64Cu+2] (stereo not shown) [Example 7]
Uptake (radiation of remaining cells, gamma counter) ([1]; NaHS Concentration 0 μM): 20000 | Uptake (radiation of remaining cells, gamma counter) ([1]; NaHS Concentration 1 μM): 21000 | Uptake (radiation of remaining cells, gamma counter) ([1]; NaHS Concentration 50 μM): 23000 | uptake in inflamed paw versus opposite paw (Paw inflammation model; optical and nuclear medicine imaging performed 2 hours later): higher uptakes

C1C[N]2CCC[N]3CCC[N](C1)[64Cu]23 [Example 21]
% decomplexation ([2]; NaHS 0 μM): 0% | % decomplexation ([2]; NaHS 1 μM): 0% | % decomplexation ([2]; NaHS 10 μM): 6.2% | % decomplexation ([2]; NaHS 15 μM): 10% | % decomplexation ([2]; NaHS 20 μM): 58% | % decomplexation ([2]; NaHS 50 μM): 63% | % decomplexation ([2]; NaHS 100 μM): 100% | Formation of copper sulfide (^64CuS) over time ([3]; 10 sec): 52 | Formation of copper sulfide (^64CuS) over time ([3]; 30 sec): 72 | Formation of copper sulfide (^64CuS) over time ([3]; 60 sec): 100 | Formation of copper sulfide (^64CuS) over time ([3]; 5 min): 100 | Formation of copper sulfide (^64CuS) over time ([3]; 10 min): 100 | Formation of copper sulfide (^64CuS) over time ([3]; 15 min): 100 | selective reactivity with hydrogen sulfide versus biothiol compounds or anions, in words [4]: did not selectively react with hydrogen sulfide | Decomplexation [%] [5]: 9 ± 3% | Decomplexation [%] [6]: 30 ± 5% | Decomplexation [%] [7]: 33% | Decomplexation [%] [8]: 25% | Decomplexation [%] [9]: 4 ± 2% | Decomplexation [%] [10]: 2 ± 2% | Decomplexation [%] [11]: 0.4 ± 0.2% | Decomplexation [%] [12]: 0.3% | Decomplexation [%] [13]: 3 ± 1% | Decomplexation [%] [14]: 4 ± 2% | Decomplexation [%] [15]: 1% | Decomplexation [%] [16]: 3% | Decomplexation [%] [17]: 2 ± 1% | Decomplexation [%] [18]: 0.9% | Decomplexation [%] [19]: 0.5% | Decomplexation [%] [20]: 0.5% | Decomplexation [%] [21]: 6 ± 2% | Decomplexation [%] [22]: 49 ± 2% | selective uptake in inflamed sites (Paw inflammation model; optical imaging and nuclear medicine imaging): selective uptake

[Cu+2] [^64Cu(II) ion, reference compound]
selective reactivity with hydrogen sulfide versus biothiol compounds or anions, in words [4]: reacted with various biothiol compounds or anions | retention time relative to ^64CuS [23]: about half of ^64CuS

[Cu+2].[S-2] [^64CuS, copper sulfide (^64CuS)]
excretion from / retention in the body, in words ([23]; images immediately and after 4 hours): remains for a long time in the body
